Results on two compounds are retold here after patent publication US11104968B2, “Site-specific conjugation of linker drugs to antibodies and resulting ADCS” (Byondis B.V., priority 2014, dated 2021).

Assay [1] relates to PSMA-positive cell line LNCaP-C4.2. As to the kind of experiment: In vitro cytotoxicity, PSMA-positive cell line. Format: cell-based, human. Conditions: for % efficacy: at the highest concentration tested (~100 nM).
The test system of assay [2] is 5T4-positive cell line MDA-MB-468. In words: In vitro cytotoxicity, 5T4-positive cell line. Conditions: anti-5T4-vc-seco-DUBA ADCs. Format: cell-based, human. As to the method:
The potencies of the engineered anti-5T4 ADCs were equal to the conventionally linked ADC H8-wt on 5T4-expressing MDA-MB-468 cells (IC50 between 0.07 and 0.09 nM, Table 6).

Starred links: 1 amine or outer side, 2 acyl side, 3 side chain; linkers in the order of their positions; H or OH if unused. Non-standard residues stand in square brackets, D forms with d. Residues, ends and D or L forms follow the SMILES beside them. *: point of attachment. Dolaproine = CO[C@@H]([C@@H]1CCCN1)[C@@H](C)C(=O)O; Hexanoyl(6-maleimido) = O=C1C=CC(=O)N1CCCCCC(=O)*; Dil = CC[C@H](C)[C@H](NC)[C@@H](CC(=O)O)OC; PABC = O=C(OCc1ccc(N[*:1])cc1)[*:2]; X1 = C[C@@H](N*)[C@@H](O)c1ccccc1; Cit = NC(=O)NCCC[C@H](N)C(=O)O; NMeV = CN[C@H](C(=O)O)C(C)C

What is called IC50 is the concentration at which inhibition is half-maximal. Take `CC[C@H](C)[C@@H]([C@@H](CC(=O)N1CCC[C@H]1[C@H](OC)[C@@H](C)C(=O)N[C@H](C)[C@@H](O)c1ccccc1)OC)N(C)C(=O)[C@@H](NC(=O)[C@H](C(C)C)N(C)C(=O)OCc1ccc(NC(=O)[C@H](CCCNC(N)=O)NC(=O)[C@@H](NC(=O)CCCCCN2C(=O)C=CC2=O)C(C)C)cc1)C(C)C` [Free linker drug (vc-MMAE), vc-MMAE] ({Hexanoyl(6-maleimido)}-V[Cit][PABC][NMeV]V[Dil][Dolaproine]-X1): in assay [1] (anti-PSMA-vc-MMAE ADCs), it took 0.23 nM to reach half-maximal inhibition (IC50) and the “% efficacy” value is listed as 94%.
For `Cc1cccc2c(OC(=O)N(CCOCCO)CCN(C)C(=O)OCc3ccc(NC(=O)[C@H](CCCNC(N)=O)NC(=O)[C@@H](NC(=O)OCCOCCN4C(=O)C=CC4=O)C(C)C)cc3)cc3c(c12)[C@H](CCl)CN3C(=O)c1cn2cc(NC(=O)c3ccc(O)cc3)ccc2n1` [Free linker drug, vc-seco-DUBA], the entries for the “% efficacy” value in assay [1] (anti-PSMA-vc-seco-DUBA ADCs) and in assay [2] (at the highest concentration tested (~100 nM)) were 98% and 94%, respectively. The IC50 was 0.02 nM in assay [1] (anti-PSMA-vc-seco-DUBA ADCs, based on drug equivalents) and 0.02 nM in assay [2].
